# System: 356 CRISPRi constructs in E. coli ΔtolC-pore
# Assay: CRISPRi collection fitness screen with sub-inhibitory compound
# Format: cell-based
# Settings: for Growth represented as mean colony biomass: 1μg/ml MAC0452936, 6ng/ml LolCDE-in-1, 250 ng/ml Vancomycin, 7 ng/ml CHIR090, n=4; for Growth, mean colony biomass (n=4): + 7 ng/ml CHIR090
# Text: To that end, we screened the E. coli CRISPRi collection in the ΔtolC-pore genetic background with a sub-inhibitory concentration of MAC-0452936 and measured the fitness of all 356 CRISPRi mutants (Figure 4C and Data S4). […] To that end, we introduced either an arabinose inducible copy of lgt supplied on the pCHAP9231 plasmid[48] or the pBAD19s plasmid as a control into E. coli ΔtolC-pore and tested the potency of MAC-0452936 (Figure 4E). […] To test this hypothesis, we constructed E. coli ΔlgtΔtolC-pore with pCHAP9231[48] so that lgt expression was driven solely by arabinose from the plasmid.
# For screens of the CRISPRi collection with MAC-0452936, the mobile CRISPRi collection was first conjugated into E. coli ΔtolC-pore as previously described.[30] The CRISPRi collection was then arrayed on solid agar at 1536 density using the Singer-ROTOR, such that each CRISPRi strain is arrayed in technical quadruplicate. […] The screens were conducted without CRISPRi induction, using just the 5–10% basal knockdown from the pFD152 CRISPRi plasmid. Following overnight growth, plates were imaged using high-resolution scanners (Epson Perfection v750), and colony biomass for each mutant was determined.
# [1] = sub-inhibitory (¼ MIC) concentration, LB agar, basal knockdown
smiles,measurement,setting,value
C[C@@H](O)[C@H](NC(=O)c1ccc(C#Cc2ccc(CN3CCOCC3)cc2)cc1)C(=O)NO [CHIR090],Growth represented as mean colony biomass,gRNA accA,0.9728
same,"Growth, mean colony biomass (n=4)",gRNA aceF,1.1
same,"Growth, mean colony biomass (n=4)",gRNA alaS,1.087
same,"Growth, mean colony biomass (n=4)",gRNA argS,1.119
same,"Growth, mean colony biomass (n=4)",gRNA asnS,1.015
same,"Growth, mean colony biomass (n=4)",gRNA bamA,1.043
same,"Growth, mean colony biomass (n=4)",gRNA bamD,1.088
same,"Growth, mean colony biomass (n=4)",gRNA bioA,1.01
same,"Growth, mean colony biomass (n=4)",gRNA can,1.059
same,Growth represented as mean colony biomass,gRNA cca,0.9249
same,Growth represented as mean colony biomass,gRNA coaA,0.8479
same,"Growth, mean colony biomass (n=4)",gRNA csrA,1.056
same,Growth represented as mean colony biomass,gRNA cydA,1.062
same,Growth represented as mean colony biomass,gRNA cydX,1.061
same,Growth represented as mean colony biomass,gRNA dapD,0.9522
same,Growth represented as mean colony biomass,gRNA dapE,1.007
same,Growth represented as mean colony biomass,gRNA der,0.9768
same,Growth represented as mean colony biomass,gRNA dfp,0.8989
same,"Growth, mean colony biomass (n=4)",gRNA dnaC,1.065
same,Growth represented as mean colony biomass,gRNA dnaE,1.058
same,Growth represented as mean colony biomass,gRNA dnaN,1.037
same,Growth represented as mean colony biomass,gRNA dnaX,0.9219
same,"Growth, mean colony biomass (n=4)",gRNA dut,0.9955
same,Growth represented as mean colony biomass,gRNA eno,0.9728
same,Growth represented as mean colony biomass,gRNA era,1.02
same,Growth represented as mean colony biomass,gRNA fabA,0.9775
same,Growth represented as mean colony biomass,gRNA fabG,1.01
same,Growth represented as mean colony biomass,gRNA fabI,0.9675
same,Growth represented as mean colony biomass,gRNA fdx,0.979
same,Growth represented as mean colony biomass,gRNA fldA,1.057
same,"Growth, mean colony biomass (n=4)",gRNA folA,0.9636
same,Growth represented as mean colony biomass,gRNA folB,1.017
same,"Growth, mean colony biomass (n=4)",gRNA folC,1.012
same,Growth represented as mean colony biomass,gRNA folE,0.9169
same,Growth represented as mean colony biomass,gRNA folP,0.9924
same,Growth represented as mean colony biomass,gRNA frr,0.9411
same,"Growth, mean colony biomass (n=4)",gRNA ftsA,0.9154
same,Growth represented as mean colony biomass,gRNA gapA,0.9821
same,"Growth, mean colony biomass (n=4)",gRNA glmS,1.055
same,Growth represented as mean colony biomass,gRNA glmU,1.014
same,Growth represented as mean colony biomass,gRNA gltX,0.9512
same,"Growth, mean colony biomass (n=4)",gRNA glyA,1.052
same,Growth represented as mean colony biomass,gRNA groS,0.9583
same,Growth represented as mean colony biomass,gRNA grpE,1.032
same,Growth represented as mean colony biomass,gRNA guaA,0.9865
same,"Growth, mean colony biomass (n=4)",gRNA hemD,1.036
same,Growth represented as mean colony biomass,gRNA hemG,0.9689
same,Growth represented as mean colony biomass,gRNA hemH,0.992
same,Growth represented as mean colony biomass,gRNA hemL,0.9608
same,Growth represented as mean colony biomass,gRNA higA,1.023
same,Growth represented as mean colony biomass,gRNA hisS,0.9896
same,Growth represented as mean colony biomass,gRNA holD,0.9599
same,Growth represented as mean colony biomass,gRNA hscA,0.9776
same,"Growth, mean colony biomass (n=4)",gRNA infA,1.073
same,Growth represented as mean colony biomass,gRNA infC,1.06
same,Growth represented as mean colony biomass,gRNA iscU,0.9911
same,Growth represented as mean colony biomass,gRNA ispB,0.9696
same,Growth represented as mean colony biomass,gRNA ispF,0.9551
same,"Growth, mean colony biomass (n=4)",gRNA leuS,1.366
same,"Growth, mean colony biomass (n=4)",gRNA lexA,1.376
same,Growth represented as mean colony biomass,gRNA lolC,0.8957
same,"Growth, mean colony biomass (n=4)",gRNA lptA,1.212
same,"Growth, mean colony biomass (n=4)",gRNA lptB,1.0261
same,Growth represented as mean colony biomass,gRNA lptC,1.089
same,Growth represented as mean colony biomass,gRNA lptE,1.06
same,Growth represented as mean colony biomass,gRNA lptF,1.019
same,Growth represented as mean colony biomass,gRNA lptG,1.007
same,Growth represented as mean colony biomass,gRNA lpxC,0.3105
same,Growth represented as mean colony biomass,gRNA lpxD,1.005
same,"Growth, mean colony biomass (n=4)",gRNA mnmA,1.028
same,"Growth, mean colony biomass (n=4)",gRNA mrdB,0.9292
same,Growth represented as mean colony biomass,gRNA mreB,0.9175
same,Growth represented as mean colony biomass,gRNA mreC,0.8842
same,"Growth, mean colony biomass (n=4)",gRNA msbA,1.129
same,"Growth, mean colony biomass (n=4)",gRNA mukF,0.98
same,Growth represented as mean colony biomass,gRNA murB,1.054
same,Growth represented as mean colony biomass,gRNA murC,0.9542
same,"Growth, mean colony biomass (n=4)",gRNA murI,1.202
same,"Growth, mean colony biomass (n=4)",gRNA nadK,1.005
same,Growth represented as mean colony biomass,gRNA nusB,1.054
same,Growth represented as mean colony biomass,gRNA plsB,0.9093
same,"Growth, mean colony biomass (n=4)",gRNA prmC,0.9966
same,Growth represented as mean colony biomass,gRNA proS,0.9867
same,"Growth, mean colony biomass (n=4)",gRNA psd,1.319
same,"Growth, mean colony biomass (n=4)",gRNA pssA,0.939
same,"Growth, mean colony biomass (n=4)",gRNA ptsI,1.093
same,Growth represented as mean colony biomass,gRNA racR,0.9688
same,"Growth, mean colony biomass (n=4)",gRNA rho,0.9866
same,Growth represented as mean colony biomass,gRNA ribA,0.9235
same,Growth represented as mean colony biomass,gRNA ribC,0.9738
same,"Growth, mean colony biomass (n=4)",gRNA ribD,1.097
same,Growth represented as mean colony biomass,gRNA ribF,0.9595
same,Growth represented as mean colony biomass,gRNA rimM,0.9147
same,Growth represented as mean colony biomass,gRNA rluD,1.0007
same,"Growth, mean colony biomass (n=4)",gRNA rne,1.043
same,Growth represented as mean colony biomass,gRNA rpe,1.042
same,"Growth, mean colony biomass (n=4)",gRNA rplA,0.9782
same,Growth represented as mean colony biomass,gRNA rplD,0.927
same,Growth represented as mean colony biomass,gRNA rplE,1.02
same,Growth represented as mean colony biomass,gRNA rplJ,0.8734
same,Growth represented as mean colony biomass,gRNA rplO,0.8878
same,"Growth, mean colony biomass (n=4)",gRNA rplP,1.09
same,Growth represented as mean colony biomass,gRNA rplQ,1.099
same,Growth represented as mean colony biomass,gRNA rplS,0.9537
same,"Growth, mean colony biomass (n=4)",gRNA rplV,1.004
same,"Growth, mean colony biomass (n=4)",gRNA rplX,1.052
same,Growth represented as mean colony biomass,gRNA rplY,1.0779
same,"Growth, mean colony biomass (n=4)",gRNA rpmC,0.9906
same,Growth represented as mean colony biomass,gRNA rpmH,1.001
same,Growth represented as mean colony biomass,gRNA rpmI,0.9513
same,"Growth, mean colony biomass (n=4)",gRNA rpoC,1.121
same,"Growth, mean colony biomass (n=4)",gRNA rpoE,1.013
same,Growth represented as mean colony biomass,gRNA rpoH,1.038
same,"Growth, mean colony biomass (n=4)",gRNA rpsC,1.084
same,"Growth, mean colony biomass (n=4)",gRNA rpsD,1.134
same,Growth represented as mean colony biomass,gRNA rpsE,0.9264
same,Growth represented as mean colony biomass,gRNA rpsF,1.096
same,"Growth, mean colony biomass (n=4)",gRNA rpsG,0.9816
same,Growth represented as mean colony biomass,gRNA rpsH,0.9044
same,"Growth, mean colony biomass (n=4)",gRNA rpsK,1.022
same,"Growth, mean colony biomass (n=4)",gRNA rpsL,1.049
same,"Growth, mean colony biomass (n=4)",gRNA rpsM,0.9866
same,"Growth, mean colony biomass (n=4)",gRNA rpsR,1.0423
same,"Growth, mean colony biomass (n=4)",gRNA rpsT,0.8858
same,Growth represented as mean colony biomass,gRNA rsgA,0.9517
same,Growth represented as mean colony biomass,gRNA safA,1.0001
same,"Growth, mean colony biomass (n=4)",gRNA secA,1.136
same,Growth represented as mean colony biomass,gRNA secY,1.007
same,Growth represented as mean colony biomass,gRNA serS,1.071
same,Growth represented as mean colony biomass,gRNA ssb,1.053
same,Growth represented as mean colony biomass,gRNA sucA,0.9406
same,"Growth, mean colony biomass (n=4)",gRNA suhB,1.008
same,Growth represented as mean colony biomass,gRNA tilS,1.04
same,Growth represented as mean colony biomass,gRNA tonB,0.9801
same,Growth represented as mean colony biomass,gRNA trmD,0.9934
same,Growth represented as mean colony biomass,gRNA tsaB,1.008
same,Growth represented as mean colony biomass,gRNA tsaD,0.9494
same,"Growth, mean colony biomass (n=4)",gRNA tsaE,1.05
same,Growth represented as mean colony biomass,gRNA tsf,1.069
same,Growth represented as mean colony biomass,gRNA tusE,1.0146
same,Growth represented as mean colony biomass,gRNA tyrS,0.993
same,Growth represented as mean colony biomass,gRNA ubiB,0.9982
same,Growth represented as mean colony biomass,gRNA ubiD,0.963
same,"Growth, mean colony biomass (n=4)",gRNA waaA,1.006
same,Growth represented as mean colony biomass,gRNA ydaS,0.976
same,Growth represented as mean colony biomass,gRNA ydcD,0.9913
same,Growth represented as mean colony biomass,gRNA ydhL,0.9285
same,"Growth, mean colony biomass (n=4)",gRNA yedN,0.9909
same,Growth represented as mean colony biomass,gRNA yejM,0.9171
same,Growth represented as mean colony biomass,gRNA yffS,1.036
same,Growth represented as mean colony biomass,gRNA ygeF,1.069
same,"Growth, mean colony biomass (n=4)",gRNA ygeN,0.9546
same,Growth represented as mean colony biomass,gRNA yidC,0.9824
same,Growth represented as mean colony biomass,gRNA ymfE,0.9789
same,Growth represented as mean colony biomass,gRNA ymiB,1.048
same,"Growth, mean colony biomass (n=4)",gRNA yqeL,1.42
same,Growth represented as mean colony biomass,gRNA yqgF,1.058
same,"Growth, mean colony biomass (n=4)",gRNA zipA,1.877
same,"growth defect of CRISPRi strains for the compound's molecular target (LolCDE complex and LpxC, respectively)",[1],strongest growth defect
same,growth defect of the lgt CRISPRi mutant in the presence of compound,[1],did not demonstrate a growth defect

# Source: article PMC11456916, “A screen for cell envelope stress uncovers an inhibitor of prolipoprotein diacylglyceryl transferase, Lgt, in Escherichiacoli” (iScience, 2024)
